The text below walks through data of ChEMBL document CHEMBL5584229, “Application and challenges of nitrogen heterocycles in PROTAC linker” (Eur J Med Chem, 2024).

Series [1] addresses T1, Protein cereblon/ALK tyrosine kinase receptor (Homo sapiens, UniProt Q9UM73+Q96SW2). Put plainly: PROTAC activity at CRBN/ALK in human NCI-H3122 cells assessed as induction of ALK degradation incubated for 24 hrs by Western blot analysis. It counts as cell-based. In general terms: In western blotting, separated proteins are transferred to a membrane and probed.
Target sequence in this assay (Q9UM73 whole entry): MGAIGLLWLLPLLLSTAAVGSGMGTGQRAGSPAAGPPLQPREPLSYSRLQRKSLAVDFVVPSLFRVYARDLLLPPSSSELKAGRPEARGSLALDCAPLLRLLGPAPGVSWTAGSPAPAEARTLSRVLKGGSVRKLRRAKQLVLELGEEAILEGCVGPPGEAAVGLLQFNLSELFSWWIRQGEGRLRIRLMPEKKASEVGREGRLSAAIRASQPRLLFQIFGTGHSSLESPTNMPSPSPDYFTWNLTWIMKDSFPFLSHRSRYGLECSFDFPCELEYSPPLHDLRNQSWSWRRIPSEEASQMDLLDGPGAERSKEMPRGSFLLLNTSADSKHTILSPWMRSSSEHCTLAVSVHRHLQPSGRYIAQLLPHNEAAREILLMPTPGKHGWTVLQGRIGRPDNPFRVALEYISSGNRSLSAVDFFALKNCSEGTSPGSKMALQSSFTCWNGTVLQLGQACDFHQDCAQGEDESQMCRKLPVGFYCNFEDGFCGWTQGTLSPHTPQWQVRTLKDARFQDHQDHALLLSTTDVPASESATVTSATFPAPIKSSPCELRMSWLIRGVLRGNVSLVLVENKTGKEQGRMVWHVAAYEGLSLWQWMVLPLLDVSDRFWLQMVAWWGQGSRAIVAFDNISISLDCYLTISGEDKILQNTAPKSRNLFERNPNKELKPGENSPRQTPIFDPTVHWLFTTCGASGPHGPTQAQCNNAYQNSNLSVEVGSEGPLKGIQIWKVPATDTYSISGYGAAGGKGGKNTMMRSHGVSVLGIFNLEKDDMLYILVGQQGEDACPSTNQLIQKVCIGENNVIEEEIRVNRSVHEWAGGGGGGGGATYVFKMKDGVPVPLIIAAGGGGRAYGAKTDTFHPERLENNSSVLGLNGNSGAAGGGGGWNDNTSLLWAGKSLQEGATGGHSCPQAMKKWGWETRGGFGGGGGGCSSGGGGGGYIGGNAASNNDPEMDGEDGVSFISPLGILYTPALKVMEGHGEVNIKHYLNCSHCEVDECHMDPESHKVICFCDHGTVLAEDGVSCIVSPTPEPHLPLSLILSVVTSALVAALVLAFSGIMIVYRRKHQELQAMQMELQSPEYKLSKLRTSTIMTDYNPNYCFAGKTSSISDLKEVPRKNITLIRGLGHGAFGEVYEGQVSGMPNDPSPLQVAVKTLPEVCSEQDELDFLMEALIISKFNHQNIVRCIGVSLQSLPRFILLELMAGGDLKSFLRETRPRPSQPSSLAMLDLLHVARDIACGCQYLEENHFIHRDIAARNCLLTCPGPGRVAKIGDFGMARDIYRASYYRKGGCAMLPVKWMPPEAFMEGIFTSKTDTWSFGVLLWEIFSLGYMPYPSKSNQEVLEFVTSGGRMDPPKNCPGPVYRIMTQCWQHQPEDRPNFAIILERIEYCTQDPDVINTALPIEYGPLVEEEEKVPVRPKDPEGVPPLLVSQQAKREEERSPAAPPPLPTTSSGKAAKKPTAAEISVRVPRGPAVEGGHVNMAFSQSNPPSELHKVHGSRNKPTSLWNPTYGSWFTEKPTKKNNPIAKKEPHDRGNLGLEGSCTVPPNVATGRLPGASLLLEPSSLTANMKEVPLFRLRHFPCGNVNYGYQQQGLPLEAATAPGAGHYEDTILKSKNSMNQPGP
Target sequence in this assay (Q96SW2 whole entry): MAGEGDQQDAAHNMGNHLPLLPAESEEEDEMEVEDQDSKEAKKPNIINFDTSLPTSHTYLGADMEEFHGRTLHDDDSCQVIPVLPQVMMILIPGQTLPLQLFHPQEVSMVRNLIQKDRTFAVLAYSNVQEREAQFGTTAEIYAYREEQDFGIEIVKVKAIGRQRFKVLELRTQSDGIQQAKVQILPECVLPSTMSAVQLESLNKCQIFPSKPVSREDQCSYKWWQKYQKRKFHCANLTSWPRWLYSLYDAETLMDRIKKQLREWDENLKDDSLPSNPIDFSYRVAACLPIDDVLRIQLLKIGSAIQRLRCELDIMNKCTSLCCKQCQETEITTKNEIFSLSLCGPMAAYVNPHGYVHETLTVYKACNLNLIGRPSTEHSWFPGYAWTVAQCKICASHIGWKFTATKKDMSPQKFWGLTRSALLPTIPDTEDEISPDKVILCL
Series [2] addresses T1, Protein cereblon/ALK tyrosine kinase receptor. Put plainly: PROTAC activity at CRBN/ALK in human NCI-H3122 cells assessed as induction of ALK degradation by measuring maximal degradation at […] incubated for 24 hrs by Western blot analysis. The series is classed as cell-based.
In series [3] the target is Protein cereblon/Androgen receptor (Homo sapiens, UniProt P10275+Q96SW2). Put plainly: PROTAC activity at AR/CRBN in human A549 cells assessed as induction of androgen receptor degradation measured after 1 hr by Western blot analysis. The series is classed as cell-based.
Series [4] deals with T2, von Hippel-Lindau disease tumor suppressor/Mitogen-activated protein kinase 14 (Homo sapiens, UniProt Q16539+P40337). Put plainly: PROTAC activity at VHL/N-terminal His-tagged human p38alpha in T47D cells assessed as p38alpha degradation. The series is classed as cell-based.
Series [5] addresses T2, von Hippel-Lindau disease tumor suppressor/Mitogen-activated protein kinase 14. Put plainly: PROTAC activity at VHL/N-terminal His-tagged human p38alpha in MDA-MB-231 cells assessed as p38alpha degradation. It counts as cell-based.
In series [6] the target is E3 ubiquitin-protein ligase Mdm2/Histone deacetylase 1 (Homo sapiens) (UniProt Q00987+Q13547). Put plainly: PROTAC activity at MDM2/HDAC1 in human HCT-116 cells assessed as induction of HDAC1 degradation at 10 uM by Western blot analysis relative to control. It counts as cell-based.
The test system of the next series is A549. Put plainly: Cytotoxicity against human A549 cells assessed as reduction in cell growth incubated for 5 days by MTT assay. It counts as functional, cell-based. The following applies: A549, 120 h. On the technique in general: Tetrazolium assays rely on reduction of a dye to a coloured formazan, in cell work by metabolically active cells.
Series [7] deals with Von Hippel-Lindau disease tumor suppressor/Elongin B/Elongin C (Homo sapiens, UniProt P40337). Put plainly: Inhibition of 6xHis-tagged VHL (1 to 213 residues)/Elongin B/Elogin C (unknown origin) expressed in Escherichia coli BL21 cells by fluorescence polarization assay.
For series [8], the system named is von Hippel-Lindau disease tumor suppressor/Epidermal growth factor receptor (Homo sapiens), P00533+P40337 [UNDEFINED MUTATION]. Put plainly: PROTAC activity at VHL/EGFR del19 mutant in human HCC827 cells assessed as maximal degradation incubated for 24 hrs by immunoblot analysis relative to control. The series is classed as cell-based.
In series [9] the target is T3, Protein cereblon/Receptor-type tyrosine-protein kinase FLT3 (Homo sapiens, UniProt P36888+Q96SW2). Put plainly: PROTAC activity at CRBN/FLT3 in human MV4-11 cells harboring FLT3-ITD mutation assessed as induction of FLT3 degradation incubated for 24 hrs by immunoblotting analysis. It counts as cell-based.
The target of series [10] is T3, Protein cereblon/Receptor-type tyrosine-protein kinase FLT3. Put plainly: PROTAC activity at CRBN/FLT3-ITD mutant in human MV4-11 cells assessed as protein degradation by Western blot analysis. The series is classed as cell-based.
Series [11] in a line: AUC (0 to t) in ICR mouse at 2 mg/kg, iv. The following applies: in vivo. The series is classed as ADME, organism-based.
For the next series, the system named is HeLa. Put plainly: Antiproliferative activity against human HeLa cells assessed as reduction in cell viability incubated for 24 hrs by MTT assay. It counts as functional, cell-based.
Series [12] has as its target Protein cereblon/Cyclin-dependent kinase 9 (Homo sapiens) (UniProt P50750+Q96SW2). Put plainly: Protac activity at CRBN/CDK9 in human HeLa cells assessed as […] at 1 uM measured after 6 hrs by Western blot analysis. It counts as cell-based.

T2 sequence (Q16539 whole entry): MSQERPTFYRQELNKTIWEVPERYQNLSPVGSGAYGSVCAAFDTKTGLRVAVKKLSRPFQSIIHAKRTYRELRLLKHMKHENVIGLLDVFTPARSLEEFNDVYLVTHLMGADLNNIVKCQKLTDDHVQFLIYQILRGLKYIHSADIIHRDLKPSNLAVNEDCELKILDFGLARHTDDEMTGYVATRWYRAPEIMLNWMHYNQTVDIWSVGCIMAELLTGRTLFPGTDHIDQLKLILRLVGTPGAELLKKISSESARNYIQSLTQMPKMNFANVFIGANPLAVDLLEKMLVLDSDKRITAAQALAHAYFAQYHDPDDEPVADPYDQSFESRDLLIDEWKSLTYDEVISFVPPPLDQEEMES
T2 sequence (P40337 whole entry): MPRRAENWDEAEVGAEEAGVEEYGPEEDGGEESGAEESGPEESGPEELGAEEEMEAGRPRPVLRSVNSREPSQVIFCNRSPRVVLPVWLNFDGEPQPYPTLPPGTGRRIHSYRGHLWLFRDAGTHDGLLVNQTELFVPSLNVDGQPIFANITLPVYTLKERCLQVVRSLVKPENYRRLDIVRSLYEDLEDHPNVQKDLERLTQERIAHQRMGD
T3 sequence (P36888 whole entry, looked up, change not shown): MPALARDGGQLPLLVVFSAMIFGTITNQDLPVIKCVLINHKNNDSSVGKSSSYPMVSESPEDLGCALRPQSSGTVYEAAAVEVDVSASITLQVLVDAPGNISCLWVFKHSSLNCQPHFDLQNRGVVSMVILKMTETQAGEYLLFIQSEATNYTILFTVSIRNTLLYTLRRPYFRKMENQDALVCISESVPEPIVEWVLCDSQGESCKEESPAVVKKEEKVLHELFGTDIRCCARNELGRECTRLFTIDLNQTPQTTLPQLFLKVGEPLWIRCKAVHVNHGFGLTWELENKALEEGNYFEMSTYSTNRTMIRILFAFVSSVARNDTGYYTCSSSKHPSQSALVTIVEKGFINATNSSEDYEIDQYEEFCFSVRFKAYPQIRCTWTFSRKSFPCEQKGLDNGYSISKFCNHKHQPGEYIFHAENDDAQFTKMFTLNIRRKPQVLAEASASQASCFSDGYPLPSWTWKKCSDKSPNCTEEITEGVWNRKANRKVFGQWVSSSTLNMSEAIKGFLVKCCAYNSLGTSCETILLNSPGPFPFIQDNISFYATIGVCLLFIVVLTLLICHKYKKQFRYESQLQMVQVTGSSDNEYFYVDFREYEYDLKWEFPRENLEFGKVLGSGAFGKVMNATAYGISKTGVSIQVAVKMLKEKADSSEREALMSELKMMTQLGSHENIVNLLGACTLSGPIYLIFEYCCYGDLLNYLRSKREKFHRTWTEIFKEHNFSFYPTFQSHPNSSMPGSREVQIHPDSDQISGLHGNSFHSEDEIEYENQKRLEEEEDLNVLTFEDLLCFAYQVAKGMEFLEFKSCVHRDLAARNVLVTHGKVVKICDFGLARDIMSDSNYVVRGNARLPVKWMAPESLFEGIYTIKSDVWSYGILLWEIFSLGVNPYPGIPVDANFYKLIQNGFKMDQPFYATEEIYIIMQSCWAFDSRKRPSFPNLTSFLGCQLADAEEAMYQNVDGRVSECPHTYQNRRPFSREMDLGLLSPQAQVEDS
T3 sequence (Q96SW2 whole entry, looked up, change not shown): as the sequence (Q96SW2 whole entry) above
Protein cereblon/Cyclin-dependent kinase 9 (Homo sapiens), sequence (P50750 whole entry, looked up): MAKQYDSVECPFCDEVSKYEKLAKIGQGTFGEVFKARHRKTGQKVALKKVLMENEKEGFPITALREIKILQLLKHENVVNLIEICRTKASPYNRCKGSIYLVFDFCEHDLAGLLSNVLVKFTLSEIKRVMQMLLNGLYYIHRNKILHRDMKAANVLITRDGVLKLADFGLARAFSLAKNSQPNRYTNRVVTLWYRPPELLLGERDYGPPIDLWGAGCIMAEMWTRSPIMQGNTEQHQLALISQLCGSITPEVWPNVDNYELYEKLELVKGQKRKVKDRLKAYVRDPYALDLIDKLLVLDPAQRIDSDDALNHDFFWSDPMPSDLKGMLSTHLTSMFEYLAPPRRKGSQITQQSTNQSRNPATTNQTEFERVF
Protein cereblon/Cyclin-dependent kinase 9 (Homo sapiens), sequence (Q96SW2 whole entry, looked up): as the sequence (Q96SW2 whole entry) above
Von Hippel-Lindau disease tumor suppressor/Elongin B/Elongin C, sequence (P40337 whole entry, looked up, the tested form may be a part): as the sequence (P40337 whole entry) above

The term DC50 denotes the concentration giving 50% degradation. For `N#Cc1cccc(-c2ccc(=O)n(Cc3cccc(-c4ncc(OCC5CCN(CC(=O)NCCOCNc6ccc7c(c6)C(=O)N(C6CCC(=O)NC6=O)C7=O)CC5)cn4)c3)n2)c1` (configuration not stated), the 50% degradation concentration (DC50) in [1] amounted to 0.00077 µM. In addition, the Emax in [2] is more than 99%. As to `CC1(C)C(=O)N(c2ccc(C#N)c(C(F)(F)F)c2)C(=S)N1c1ccc(-c2ccc(O[C@@H]3CCN(C(=O)C4CCN(c5ccc6c(c5)C(=O)N(C5CCC(=O)NC5=O)C6=O)CC4)C3)cc2)cc1` (some centres not stated), the DC50 in series [3] came out at 0.075 µM.

Take `C=C1c2cccc(NCCCCCCNC(=O)CCCn3cc(CCCCNC(=O)c4ccc(C)c(-n5c(C)cc(OCc6ccc(F)cc6F)c(Br)c5=O)c4)nn3)c2C(=O)N1C1CCC(=O)NC1=O` (configuration not stated): the DC50 in series [4] amounted to 0.0029 µM; in series [5], 0.0184 µM. On to `N#Cc1cccc(-c2ccc(=O)n(Cc3cccc(-c4ncc(OCC5CCN(CC(=O)N6CCN(CCNc7ccc8c(c7)C(=O)N(C7CCC(=O)NC7=O)C8=O)CC6)CC5)cn4)c3)n2)c1` (configuration not stated), for which the DC50 in series [1] stood at 0.0006 µM. What is called IC50 is the point on the concentration scale where inhibition reaches its midpoint. Consider `COC(C)(C)CCC[C@@](C)(O)[C@H]1CC[C@]2(C)[C@@H]1[C@H](O)C[C@@H]1[C@@]3(C)CC[C@H](OCC(=O)N4CCC(CN5CCN(c6ccc7c(c6)CN(C6CCC(=O)NC6=O)C7=O)CC5)CC4)C(C)(C)[C@@H]3CC[C@]12C` (some centres not stated), for which, in [6], the Emax came out at 65.4%. In addition, the IC50 in the series with A549 is 2.16 µM. `CCCS(=O)(=O)Nc1ccc(F)c(C(=O)c2c[nH]c3ncc(-c4ccc(N5CCN(CC(=O)N[C@H](C(=O)N6C[C@H](O)C[C@H]6C(=O)NCc6ccc(-c7scnc7C)cc6)C(C)(C)C)CC5)cc4)cc23)c1F`: in series [7], it took 0.0068 µM to reach half-maximal inhibition (IC50). Turning to `Cc1ncsc1-c1ccc(CNC(=O)[C@@H]2C[C@@H](O)CN2C(=O)[C@@H](NC(=O)CCCCCCCCCCn2cc(COc3cc4ncnc(Nc5ccc(F)c(Cl)c5)c4cc3NC(=O)/C=C/CN3CCCCC3)nn2)C(C)(C)C)cc1`, the Emax in [8] amounted to 91%. As to `CC(C)(C)c1cc(NC(=O)Nc2ccc(-c3cn(CCCCc4cn(CCCCC(=O)Nc5cccc6c5CN(C5CCC(=O)NC5=O)C6=O)nn4)c4ncnc(N)c34)cc2)no1` (configuration not stated), the DC50 was found to be 7.85 µM in [9] and 0.0767 µM in series [10].

In general, AUC(0-t) refers to exposure summed from dosing to a finite time, without extrapolation to infinity. A higher AUC(0-t) goes with high exposure. In series [11], `NC(=O)c1cccc2cn(-c3ccc(C4CCCN(CCC5CCN(CCC6CCN(c7ccc8c(c7)C(=O)N(C7CCC(=O)NC7=O)C8=O)CC6)CC5)C4)cc3)nc12` (configuration not stated) showed an exposure AUC(0-t) of 24.5 µg·h/mL. Regarding `Cc1ccc(C(=O)NCCCc2cn(CCCC(=O)NCCCCCC(=O)N[C@H](C(=O)N3C[C@H](O)C[C@H]3C(=O)N[C@@H](C)c3ccc(-c4scnc4C)cc3)C(C)(C)C)nn2)cc1-n1c(C)cc(OCc2ccc(F)cc2F)c(Br)c1=O`, the DC50 in [5] amounted to 0.0116 µM. In the case of `CC1(NCc2cn(CCOCCOCCOCCOCCNc3cccc4c3C(=O)N(C3CCC(=O)NC3=O)C4=O)nn2)CCN(c2cnc(-c3cccc(Cl)c3Cl)c(N)n2)CC1` (configuration not stated), in the series on HeLa, the IC50 was 4.3 µM. Regarding `O=C1CCC(N2C(=O)c3cccc(NC(=O)CCCCCCCn4cc(COc5c(O)cc(O)c6c(=O)cc(-c7ccccc7)oc56)nn4)c3C2=O)C(=O)N1` (configuration not stated), in series [12], the Emax is 61.2%. With `N#Cc1cccc(-c2ccc(=O)n(Cc3cccc(-c4ncc(OCC5CCN(CC(=O)N6CCN(c7ccc8c(c7)C(=O)N(C7CCC(=O)NC7=O)C8=O)CC6)CC5)cn4)c3)n2)c1` (configuration not stated), the DC50 in [1] stood at 0.00035 µM.
